# Experimental data: patent publication US20180147140A1, “Treatment and Prevention of ENT Infections” (priority 2016, published 2018)
# Tested on: chronic sinusitis
# Test: Patient Case 1: self-reported Health Related Quality of Life Scale and symptoms
# Type: in vivo, human
# Settings: treatments before the invention regime
# Excerpt: Person in good health, whose daily med profile includes • Taking one statin generic drug daily • Taking one over the counter multiple vitamin daily • On average two medical exams each year • No diagnosed medical conditions or concerns
# Symptoms—blocked nasal passages especially on the right side of the face, continuous hardened yellow translucent pus discharge from right nostril, minor periodic bleeding, nasal sound quality of voice, a propensity for cold virus to linger and a whistle sound while breathing through the nostrils.
# The Kaiser treatment program consisted of a saline rinse bulb and recommendation of daily saline sinus rinsing along with a nasal steroid spray available over the counter. […] The patient continued occasional use of the regimen over the following 15 years with no noticeable improvement.
# Treatment began on Mar. 9, 2016 with a new and unique product. The formulation used is Composition 1 in the Formulation Example.
# Initial treatment was for 14 days, one dose daily in each nostril, approximately ¼ ounce (7.3 milliliters) administered with a nose dropper while the patient was lying down with chin inclined upward—sometimes with head over the edge of bed or pillow to increase the incline of the forehead to be lower than the chin. The patient remained unmoving for five minutes with no blowing of the nose to allow gravity saturation to reach the deep passages. […]
structure (smiles),measurement,value
CC1(C)S[C@@H]2[C@H](NC(=O)[C@H](N)c3ccc(O)cc3)C(=O)N2[C@H]1C(=O)O [amoxicillin],relief of sinusitis symptoms under earlier treatments,no relief from the sinusitis
